Patent US7618996B2, “Diaryl ether derivatives and uses thereof” (Pfizer Inc., priority 2006, dated 2009)
Counter-ions that a name gives are not always drawn.

What was measured:
mu opioid receptor [1] = target: T1, mu opioid receptor (Homo sapiens, UniProt P35372); experiment: GTPγ[35S] binding assay at mu opioid receptor (antagonist vs β-endorphin); assay type: biochemical; set-up: expressed in transfected cells; conditions: average Ki; membranes, challenged with β-endorphin (1 μM)
Experimental: (§1) GTPγ[^35S] Binding Assays at Opioid Receptors
(§2) Membranes were prepared from cells as described (Bass et al, 1996). GTPγ[^35S] binding assays were performed in a 96 well FlashPlate™ format in duplicate using 100 pM GTPγ[^35S] and 5 μg membrane per well in assay buffer composed of 50 mM Tris HCl, pH 7.4, 5 mM MgCl2, 1 mM EDTA, 100 mM NaCl, 30 μM GDP, 0.1% bovine serum albumin and the following protease inhibitors: 100 μg/ml bacitracin, 100 μg/ml benzamidine, 5 μg/ml aprotinin, 5 μg/ml leupeptin. The assay mix was then incubated at 30° C. with increasing concentrations of antagonist (10^−10 M to 10^−5 M) for 10 minutes and challenged with the agonists BW-373U86 (1 nM), dynorphin-A (10 nM), β-endorphin (1 μM) for opioid receptors delta, kappa, and mu, respectively. The assays were performed at 30° C. for one hour. The FlashPlates were then centrifuged at 2000×g for 10 minutes. Stimulation of GTPγ[^35S] binding was then quantified using a Wallac Microbeta and Ki calculations were done using Prism™ by Graphpad. […] Each of the compounds listed below were tested as their hydrochloride salts unless indicated otherwise. Those Example Numbers with an asterisk (*) were tested as their free base.

kappa opioid receptor [2] = target: T2, kappa opioid receptor (Homo sapiens, UniProt P41145); experiment: GTPγ[35S] binding assay at kappa opioid receptor (antagonist vs dynorphin-A); assay type: biochemical; set-up: expressed in transfected cells; conditions: average Ki; membranes, challenged with dynorphin-A (10 nM)
T2 sequence (P41145 whole entry): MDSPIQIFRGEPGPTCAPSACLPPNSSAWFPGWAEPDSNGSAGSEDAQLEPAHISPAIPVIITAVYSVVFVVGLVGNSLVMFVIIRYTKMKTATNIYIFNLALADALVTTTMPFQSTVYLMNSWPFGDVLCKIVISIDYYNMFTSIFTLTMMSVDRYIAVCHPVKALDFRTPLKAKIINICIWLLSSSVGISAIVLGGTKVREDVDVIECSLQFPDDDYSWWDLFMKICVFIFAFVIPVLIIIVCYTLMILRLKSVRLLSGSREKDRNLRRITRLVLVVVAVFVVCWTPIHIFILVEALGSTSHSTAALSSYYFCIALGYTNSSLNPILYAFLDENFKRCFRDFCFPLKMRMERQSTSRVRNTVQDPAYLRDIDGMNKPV
Experimental: as §1, §2

delta opioid receptor [3] = target: T3, delta opioid receptor (Homo sapiens, UniProt P41143); experiment: GTPγ[35S] binding assay at delta opioid receptor (antagonist vs BW-373U86); assay type: biochemical; set-up: expressed in transfected cells; conditions: average Ki; membranes, challenged with BW-373U86 (1 nM)
T3 sequence (P41143 whole entry): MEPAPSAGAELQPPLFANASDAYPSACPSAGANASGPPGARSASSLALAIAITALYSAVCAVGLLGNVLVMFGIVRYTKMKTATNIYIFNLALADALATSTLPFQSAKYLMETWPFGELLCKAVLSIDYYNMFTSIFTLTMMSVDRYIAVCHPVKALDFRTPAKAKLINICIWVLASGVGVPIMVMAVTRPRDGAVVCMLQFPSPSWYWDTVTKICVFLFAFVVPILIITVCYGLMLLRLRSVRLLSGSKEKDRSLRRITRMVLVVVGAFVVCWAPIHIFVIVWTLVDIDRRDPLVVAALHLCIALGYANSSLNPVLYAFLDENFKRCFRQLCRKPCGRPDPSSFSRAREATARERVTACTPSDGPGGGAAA
Experimental: as §1, §2

[4] = literature (Shaw 1991, 1993; Levine 1991); cited from earlier work
[5] = Pharmacokinetic experiment, IV in rats; assay type: in vivo, rat; conditions: male JVC/CAC rats, 1 mg/kg IV; for half-life / clearance / Vd: rat, plasma; for clearance: average of two rats; for Vd: read-out: volume of distribution
Experimental: A representative compound of the present invention (Example 1A) and a comparator compound (Example 2A) were individually dosed into two different male JVC/CAC rats at 1 mg/kg in a 10% ethanol and 90% (30% beta-cyclodextrin sulfobutylether) vehicle. Blood was subsequently collected at 0.083, 0.25, 0.5, 1, 2, 4, 6, 8 and 20 hours post IV administration. After spinning the blood samples down to get plasma, the plasma concentrations were determined by LC/MS/MS. The pharmacokinetic (PK) analysis was determined by inputting the resultant time concentration data into a Watson™ Laboratory Information Management System (LIMS).

mu opioid receptor [6] = target: T1, mu opioid receptor; conditions: literature (Statnick 2003; Zimmerman 1993); cited from earlier work
kappa opioid receptor [7] = target: T2, kappa opioid receptor; conditions: literature (Statnick 2003; Zimmerman 1993); cited from earlier work
delta opioid receptor [8] = target: T3, delta opioid receptor; conditions: compared with mu and kappa; literature; cited from earlier work

T1 sequence (P35372 whole entry): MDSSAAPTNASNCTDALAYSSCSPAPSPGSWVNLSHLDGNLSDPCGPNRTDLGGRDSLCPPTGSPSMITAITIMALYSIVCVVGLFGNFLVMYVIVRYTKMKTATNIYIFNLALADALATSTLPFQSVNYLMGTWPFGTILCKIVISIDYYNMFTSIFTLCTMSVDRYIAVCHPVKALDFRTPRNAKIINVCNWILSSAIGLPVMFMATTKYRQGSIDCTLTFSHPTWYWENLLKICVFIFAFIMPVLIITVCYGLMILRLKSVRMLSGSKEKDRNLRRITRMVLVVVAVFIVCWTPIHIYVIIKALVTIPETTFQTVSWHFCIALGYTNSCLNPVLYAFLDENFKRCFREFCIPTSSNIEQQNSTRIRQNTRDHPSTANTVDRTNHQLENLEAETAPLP

SMILES	Ki (mu opioid receptor [1])	Ki (kappa opioid receptor [2])	Ki (delta opioid receptor [3])	further results
NC(=O)c1ccc(Oc2ccc(CNC[C@@H]3CCCO3)cc2F)cc1O [Example 3F]	0.855 nM	0.235 nM	2.23 nM	–
NC(=O)c1ccc(Oc2ccc(CNCC3(O)CCCCC3)cc2F)cc1O [Example 3I]	0.158 nM	0.215 nM	3.33 nM	–
NC(=O)c1ccc(Oc2ccc(CNC3Cc4ccccc4C3)cc2F)cc1O [Example 3B]	0.00412 nM	0.0348 nM	0.041 nM	–
NC(=O)c1ccc(Oc2c(F)cc(CNCCC3CC3)cc2F)cc1O [Example 4C]	0.167 nM	0.244 nM	1.1 nM	–
CC[C@@H](NCc1ccc(Oc2ccc(C(N)=O)c(O)c2)c(F)c1)c1ccccn1 [Example 3J]	26.2 nM	13.8 nM	16.6 nM	–
NC(=O)c1ccc(Oc2c(F)cc(CNC[C@@H]3CCCO3)cc2F)cc1O [Example 4D]	0.346 nM	0.184 nM	4.87 nM	–
NC(=O)c1ccc(Oc2c(F)cc(CNC3Cc4ccccc4C3)cc2F)cc1O [Example 4F]	–	0.0848 nM	0.0543 nM	–
C[C@H]1CN(CC[C@H](O)C2CCCCC2)CC[C@@]1(C)c1cccc(O)c1 [LY255582]	–	–	–	anorectic effects [4]: robust anorectic effects
NC(=O)c1ccc(Oc2c(F)cc(CNC3CCCCC3)cc2F)cc1O [Example 4B]	0.0772 nM	0.0731 nM	0.866 nM	–
NC(=O)c1ccc(Oc2ccc(CNCC3CCCO3)cc2F)cc1O (stereo not shown) [Example 3E]	1.17 nM	0.47 nM	3.25 nM	–
NC(=O)c1ccc(Oc2ccc(CNCC3CCOCC3)cc2F)cc1O [Example 3H]	4.9 nM	1.56 nM	3.02 nM	–
NC(=O)c1ccc(Oc2c(F)cc(CNCCC3CCOCC3)cc2F)cc1O [Example 4E]	0.0963 nM	0.419 nM	0.352 nM	–
NC(=O)c1ccc(Oc2ccc(CNCCC3CC3)cc2F)cc1O [Example 3A, 4-(4-{[(2-cyclopropylethyl)amino]methyl}-2-fluorophenoxy)-2-hydroxybenzamide, hydrochloride salt]	0.312 nM	0.39 nM	0.62 nM	–
CC(C)CCNCc1ccc(Oc2ccc(C(N)=O)c(O)c2)c(F)c1 [Example 1A, 4-(2-fluoro-4-{[(3-methylbutyl)amino]methyl}phenoxy)-2-hydroxybenzamide, hydrochloride salt]	0.335 nM	0.652 nM	0.64 nM	half-life [5]: 2.9 h; clearance [5]: 18.6 mL/min/kg; Vd [5]: 2 L/kg
CC1CNCCC1(C)c1cccc(O)c1 (stereo not shown) [LY515300, 3,4-dimethyl-4-(3-hydroxyphenyl)piperidine]	–	–	–	binding affinity for the mu-opioid receptor subtype (mu opioid receptor [6]): sub-nanomolar; binding affinity for the kappa-opioid receptor subtype (kappa opioid receptor [7]): sub-nanomolar; affinity for the delta-opioid receptor (delta opioid receptor [8]): lower affinity
NC(=O)c1ccc(Oc2ccc(CNC[C@H]3CCCO3)cc2F)cc1O [Example 3G]	3.91 nM	1.09 nM	10.3 nM	–
NC(=O)c1ccc(Oc2ccc(CNCCOc3ccccc3)cc2F)cc1O [Example 3D]	0.92 nM	5.35 nM	0.687 nM	–
CC(C)OCCNCc1ccc(Oc2ccc(C(N)=O)c(O)c2)c(F)c1 [Example 3C]	1.65 nM	3.78 nM	1.68 nM	–
CC(C)CCNCc1ccc(Oc2cccc(O)c2)c(F)c1.Cl [Example 2A, 3-(2-fluoro-4-{[(3-methylbutyl)amino]-methyl}phenoxy)phenol, hydrochloride salt]	16.7 nM	47.1 nM	25.4 nM	clearance relative to hepatic blood flow [5]: approximately 5 times hepatic blood flow; half-life [5]: 0.7 h; clearance [5]: 361 mL/min/kg; Vd [5]: 10 L/kg
CC(C)CCNCc1cc(F)c(Oc2ccc(C(N)=O)c(O)c2)c(F)c1 [Example 4A, 4-(2,6-difluoro-4-{[(3-methybutyl)amino]methyl}phenoxy)-2-hydroxybenzamide]	0.094 nM	0.164 nM	0.465 nM	–
